These are literature values, as cited in publication PMC7126291 (Bioorganic & Medicinal Chemistry Letters, 2009).

In one series the test system is human rhinovirus. Particulars: Phase II clinical trials, intranasal delivery.

For the compound `O=C(Oc1cncc(Br)c1)c1ccco1` [Compound 7], in the series with HAV 3C^pro, the IC50 (commonly the concentration at which inhibition is half-maximal) is 53 nM.

As to `CCOC(=O)/C=C/[C@H](C[C@@H]1CCNC1=O)NC(=O)[C@@H](CC(=O)[C@@H](NC(=O)c1cc(C)on1)C(C)C)Cc1ccc(F)cc1` [rupintrivir], the “reduction of mean total daily symptom score” value in the series on human rhinovirus is 33%.
